Measurements reported in patent US12257367B2, “Biomaterials for biological tissue repair” (KONAN GAKUEN, priority 2019, dated 2025).

How the values were obtained:
[1] = tested on: mouse tissues (lung, cardiac muscle, skeletal muscle, kidney); experiment: Azide modification of mouse tissues by Ac4ManNAz administration and hydrogel fabrication using biological tissue; format: in vivo; conditions: intraperitoneal once a day for seven days
Protocol: 6 mg of Ac4ManNAz was dissolved in a mixed solvent of DMSO and PBS solution (58% DMSO) to prepare a Ac4ManNAz solution. 200 μL of the resulting Ac4ManNAz solution was intraperitoneally administered to a mouse (ICR, 5 weeks old, female) once a day for seven consecutive days for azide-modification of the mouse tissues. A week later, lung, cardiac muscle, skeletal muscle and kidney of the mouse were resected. The resected tissues were allowed to react with 100 μM of carboxyrhodamine 110 DBCO for an hour, then added with a PBS solution, vortexed and left to stand still for 10 minutes. This operation was repeated for 3 times. As control, tissues resected from a mouse that was not administered with the Ac4ManNAz solution were allowed to react with carboxyrhodamine 110 DBCO for an hour. […] In order to carry out gelation reaction using mouse tissues, the Ac4ManNAz solution was administered to a mouse in the same manner as described above and lung, brain, muscle tissue, kidney, heart and liver were resected from the mouse.

[2] = tested on: mouse myoblasts (C2C12 cells); experiment: Cytotoxicity test of Ac4ManNAz by WST-1 assay; format: cell-based
Protocol: In order to examine the cytotoxicity of the synthesized Ac4ManNAz, mouse myoblasts (C2C12 cells) were used to evaluate toxicity to cells by WST-1 assay. The cells were seeded in a 96-well plate at 1×10^4 cells/well, to which a predetermined amount of Ac4ManNAz dissolved in a DMEM medium (final concentrations of 0, 0.0001, 0.001, 0.01, 0.1 and 1 mM) was added to culture the resultant in a CO2 incubator at 37° C. for one day. To each well, 10 μL of a WST-1 solution (WST-1:1-Methoxy PMS=9:1) was added to allow reaction in the CO2 incubator for 2 hours. Thereafter, absorbance was determined with a microplate reader. Cell viability was calculated from the absorbance.

C2C12 cells = experiment: Azide modification of cell surface by sugar metabolism of Ac4ManNAz, detected with carboxyrhodamine 110 DBCO; format: cell-based, mouse
Protocol: C2C12 cells were cultured in a DMEM medium containing 100 μM of Ac4ManNAz for 3 days to allow biosynthesis of azide-modified sialic acid at the end of the glycan of the cell membrane protein via cell sugar metabolism reaction of Ac4ManNAz. The cultured cells were washed with PBS twice. To confirm whether an azide group was introduced, carboxyrhodamine 110 DBCO (final concentration 5 μM) was added to the medium and allowed to react in the CO2 incubator for an hour. Subsequently, the cells were washed with PBS twice, to which a live cell imaging buffer (composition of the solution: 140 mM NaCl, 2.5 mM KCl, 1.8 mM CaCl2), 1.0 mM MgCl2 and 20 mM HEPES pH 7.4) was added to observe the cells with a confocal microscope.

In the case of CC(=O)OC[C@H]1OC(OC(C)=O)[C@@H](NC(=O)CN=[N+]=[N-])[C@@H](OC(C)=O)[C@@H]1OC(C)=O (some centres unmarked) [Ac4ManNAz], the “azide modification of tissues in living body (FITC-derived green fluorescence after bAlg-DBCO-FITC)” value [1] was “green fluorescence was observed in all of the tissues”, the “amount applicable without having toxicity to cells” value ([2]; WST-1) was 5 to 100 µM and the cell viability ([2]; WST-1, all concentrations (0-1 mM), one day) was at least 90%. The “carboxyrhodamine 110-derived green fluorescence of cells” value (C2C12 cells; C2C12 cells cultured with 100 μM for 3 days, confocal microscope) was “strong green fluorescence was observed only on the surface of the cell membrane” and the “concentration that allows a maximum amount of azide groups to be introduced into the cell surface (fluorescence intensity plateau)” value (C2C12 cells; C2C12 cells, carboxyrhodamine 110 DBCO) was 100 µM.
